In publication PMC10049354, “Anti-Inflammatory Effects and Photo- and Neuro-Protective Properties of BIO203, a New Amide Conjugate of Norbixin, in Development for the Treatment of Age-Related Macular Degeneration (AMD)” (International Journal of Molecular Sciences, 2023):

Columns and labels:
[1] = system: albino rats exposed to blue-light-induced photoreceptor degeneration; assay: Blue-light damage (BLD) study in albino rats: ERG; assay type: in vivo, rat; settings: for effect on visual function (ERG A-wave and B-wave): four IP administrations; for efficacy dose in the rat model of BLD: IP
Procedure: The ERG in rats was performed using the electrophysiological system RETI-animal® from Roland Consult. ERG was recorded on both eyes from overnight dark-adapted animals. Rats were anesthetized by an intramuscular injection of a mix of Rompun® (xylazine)/Imalgene® (ketamine) before ERG measurement. Ten to fifteen minutes before measurement, one drop of Mydriaticum® (0.5% tropicamide) was instilled for pupillary dilatation. The A-wave and B-wave implicit times (ms) and amplitudes (µV) were measured for each ERG. The B-wave amplitude (value and %) was given as informative data. ERG parameters: Ganzfeld Q450C, Color: white maximum, Maximum intensity: 3 cd/m^2 (0 dB); Duration 0.24 ms; number of flashes: 1, Filter: 50 Hz, Impedance threshold: 50 kΩ. For scotopic ERGs, the A-wave amplitudes were measured from the baseline to the peak of the negative potential, whereas B-wave amplitudes were measured from the trough of the A-wave to the peak of the positive potential. The recordings obtained from these analyses were tabulated and normalized (%) for each eye. Group means, standard deviation, and median values were calculated, considering each eye from one animal as a separate value. ERG recordings in mice were performed as previously described.
Sixty-four animals were selected based on good health and on scotopic electroretinogram performed before induction when the A-wave amplitude of both eyes was in the range of the global mean (all animals) of A-wave amplitude ± 1.96 SD. Animals were then randomized into the study groups using a macro function in Excel® software based on the A-wave amplitude of both eyes (mean value). On Day 0, BIO203, negative controls, and comparator (N-tert-Butyl-a-phenylnitrone (PBN)) were intraperitoneally injected using a 25 G needle in rats that have been dark-adapted for 36 h. Individually housed rats were then exposed for 6 h (±5 min) to a continuous blue, fluorescent light (400–540 nm) in clear plastic cages. After exposure and administration, the rats were placed in a dark room for 24 h (±1 h) and then were returned to rearing cyclic light conditions.

[2] = Ocular PK in rats following four repeated IP administrations; assay type: in vivo; settings: rat eye; for ocular exposure: BIO201 10 mg/kg, BIO203 2.5 mg/kg
Procedure: The compounds were administered to 8–9 months old Male Sprague-Dawley rats (n = 3 per group and per collection time) by four successive intraperitoneal administrations in vehicle (DMSO/NaCl/NaOH for BIO203 and PBS/Tween 80 (95/5) for BIO201). The solutions of BIO203 and BIO201 were centrifuged, and the clear supernatants were administered to rats. Administered volume was 10 mL/kg, and the final injected concentrations were 10 mg/kg and 2.5 mg/kg for BIO201 and BIO203, respectively. Again, doses administered differ because BIO201 and BIO203 solubility are not equivalent in their respective vehicles. The dose of BIO203 was reduced to avoid toxicity of DMSO present in the vehicle, but the same volumes were injected into animals. The eyes were collected 1 h after administrations n°1 to 4 according to the following timing: 1 h, 3.5 h, 5.5 h, and 7.5 h. After euthanasia, the two eyes of each rat were collected in a Precellys tube, frozen, and stored at −80 °C.
Analysis was performed on an LC 1260 System coupled with Mass Spectrometer QQQ-6420 with DAD (Agilent Technologies). Norbixin and BIO203 were eluted from a reverse-phase column (2.1 × 50 mm; 3 μm particles; Ace Excel C18) with the following gradient of acetonitrile in water (both containing 0.1% formic acid): 55 to 100% in 5 min), (flowrate: 0.3 mL/min). […] were monitored by a mass spectrometer, in positive MRM mode, with the following transitions, respectively, 381.1 -> 144.9 and 478.1 -> 362.9. For quantification of BIO201 and BIO203, calibration curves were prepared under the same conditions as the sample matrix, with various amounts of BIO201 or BIO203 (25 to 10,000 ng/mL in plasma and 5 to 500 ng/mL for eyes).
For determination of concentrations of BIO201 or BIO203 in ocular tissues, each eye was homogenized in CHCl3/MeOH (1:1, v/v) (0.5 mL) with a homogenizer (Precellys-24) during 2 cycles (30 s) at 6500 rpm. The internal standard (retinoic acid at 10 µg/mL) was added, and the organic layer was extracted. The homogenate was then extracted two times with CHCl3/CH2Cl2 (0.5 mL). […]

[3] = system: RXR; assay: RXR transactivation assay induced by A2E; assay type: cell-based, pig; settings: compound 20 μM; A2E 20 μM; porcine RPE cells
Procedure: Transactivation assays were performed as previously described. Briefly, RPE cells were plated in DMEM 2% FCS at a density of 6 × 10^4 cells/cm^2. The next day transfections using the Cignal Reporter Assay Kits for PPAR, RXR, AP-1, and NF-κB were performed with Lipofectamine and Plus Reagent in serum-free medium. Three hours after the transfection, A2E and/or BIO203, both at 20 μM, were added to the culture medium for 24 h. Luciferase activity was measured using the Dual-Luciferase Reporter Assay System and with a luminometer (Infinite M1000 from Tecan, Mannedorf, Switzerland). At least 3 independent transfections were performed in triplicate for each condition.

[4] = system: NF-κB; parameters: method as in PMID 34544906; settings: cited from earlier work

Row | Structure (SMILES) | effect on visual function (ERG A-wave and B-wave) ([1]; 5 mg/kg, ERG 7 days after blue light) | effect on visual function (ERG A-wave and B-wave) ([1]; 10 mg/kg, ERG 7 days after blue light) | effect on visual function (ERG A-wave and B-wave) ([1]; 25 mg/kg, ERG 7 days after blue light, p < 0.0001) | efficacy dose in the rat model of BLD [1] | ocular exposure of BIO203 relative to BIO201 [2] | ocular exposure [2] | inhibition of RXR transactivation induced by A2E [3] | effect on visual function (ERG A-wave and B-wave) ([1]; 50 mg/kg, positive controls) | change of NF-κB transactivation induced by A2E [4]
1 | COC1CCCN(C(=O)/C=C/C(C)=C/C=C/C(C)=C/C=C/C=C(C)/C=C/C=C(C)\C=C\C(=O)O)C1 (centres unmarked) [BIO203] | no significant effect | no significant effect | protective effect | 25 mg/kg | approximately 10 times | 144.9 ng·h/eye | did not inhibit |  | 
2 | CC(=C/C=C/C(C)=C/C=C/C=C(C)/C=C/C=C(C)/C=C/C(=O)O)/C=C/C(=O)O [norbixin, 9′-cis-norbixin] |  |  |  | 50 mg/kg |  | 16.7 ng·h/eye |  | protected the visual functions | −73%
